Assay in all cases: inhibition of tumour cell growth, NCI panel, 48 h
The subject of assay [1] is SR leukemia.
The test system of assay [2] is SF-295 CNS.
For assay [3], the system named is A549 NSCLC.
Assay [4] relates to U251 CNS.
Assay [5] deals with SK-MEL-5 melanoma.
Assay [6] has as its system IGROV1 ovarian.
Assay [7] deals with HT29 colon.
In assay [8] the test system is COLO 205 colon.
The subject of assay [9] is CAKI-1 renal.
The subject of assay [10] is EKVX NSCLC.

Values joined by “and” are separate entries in the source; they are usually repeats but may differ in a detail not shown here. Identical values can stand only once.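 A five-concentration, 48-hour dose response in 96-well plates underlies each endpoint, interpolated linearly between surrounding concentrations. The concentration for 50% growth inhibition is given as GI50. At the TGI there is no net growth.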

In the case of `O=C([O-])c1ccccc1Nc1ccccc1C(=O)[O-].[OH3+].[Zn+2]`, the TGI was more than 63.7 µM in assay [1]; 32.2 µM in assay [2]; more than 100 µM in assay [3]; 33 µM in assay [4]; 62.3 µM in assay [5]; 18.8 µM in assay [6]. The TGI is more than 100 µM in assay [7], more than 75.3 µM in [8], 8.45 µM in assay [9] and 65.8 µM in [10].

Take `COc1cc(/C=C2\C(=O)Nc3ccc(Cl)cc32)cc(OC)c1OC`: the GI50 in [1] was 3.29 µM; in assay [2] it was 78.2 µM; in [3], 41.2 µM; in assay [4], 13.1 µM; in assay [5], 12.7 µM; in assay [6] it was 4.51 µM. The GI50 in assay [7] was 6.71 µM; in assay [8], 8.01 µM; in [9], 23.6 µM; in [10] it was 13.8 µM. Further, the TGI is more than 100 µM in [1]; more than 100 µM in assay [2]; more than 100 µM in assay [3]; 32.4 µM in [4]; more than 100 µM in [5]; more than 100 µM in [6]. Besides, the TGI in assay [7], in [8], in assay [9] and in assay [10] was more than 100 µM throughout.

As for `O=C1NCN(c2ccccc2)C12CCN(CCCN1CCN(CCOC(c3ccccc3)c3ccccc3)CC1)CC2`, the TGI in assay [1] came out at 2.04 µM; in assay [2], 6.41 µM; in assay [3], 7.82 µM; in [4], 7.45 µM; in assay [5], 2.35 µM; in [6], 7.4 µM. In addition, the TGI is 4.22 µM in [7], 2.26 µM in assay [8], 7.43 µM in assay [9] and 7.24 µM in [10].

On to `CCCCC1Nc2ccccc2-c2ccnc(Cl)c21` (configuration not stated), for which the TGI is 51 µM in assay [1]; 47.7 µM in assay [2]; more than 100 µM in assay [3]; 50.1 µM in assay [4]; 30.3 µM in assay [5]; 47.9 µM in assay [6]. Moreover, the TGI in assay [7] stood at 47.6 µM; in [8] it was 36 µM; in assay [9], 20.2 µM; in [10] it was 60.5 µM.

Turning to `Cc1cc(C)n(CN(CCCCO)Cn2nc(C)cc2C)n1`, the TGI is 28.7 µM in assay [1]; more than 100 µM in assay [2]; more than 100 µM in assay [3]; 49.9 µM in [4]; more than 100 µM in assay [5]; 73.4 µM in assay [6]. In addition, the TGI was determined as 37.1 µM in assay [7], 31.7 µM in assay [8], 99.5 µM in [9] and 76.3 µM in [10].

Regarding `N=C1c2ccccc2C(=O)c2c(NCCNCCO)ccc(O)c21`, the TGI was 5.32 µM in [1]; more than 40.5 µM in [2]; 22.6 µM in [3]; 18.9 µM in [4]; 19.3 µM in [5]; 46.8 µM in assay [6]. Also, the TGI was more than 100 µM in assay [7], 16.9 µM in [8], 26.5 µM in assay [9] and 46.9 µM in assay [10].

For `COC1=CC(c2ccc[nH]2)=N/C1=C\c1[nH]c(C)c(CC(=O)NCc2ccccc2)c1C`, the GI50 in [2] was 1.47 µM; in assay [3], 1.66 µM; in assay [4], 1.23 µM; in assay [5] it was 1.53 µM; in assay [8] it was 1.38 µM; in assay [9], 1.48 µM. Also, the GI50 in [10] was 1.06 µM. For the same compound, the TGI in [2] was 2.89 µM; in [3], 3.15 µM; in [4] it was 2.49 µM; in assay [5] it was 2.89 µM; in [8] it was 2.98 µM; in assay [9], 2.85 µM. The compound also returned a TGI in assay [10] of 2.47 µM.

Turning to `COc1cc2c(c(OC)c1OC)-c1ccc(OC)c(=O)cc1C(NC(=O)CCCCCNc1ccc(N=[N+]=[N-])cc1[N+](=O)[O-])CC2` (configuration not stated), the TGI in assay [1] was less than 0.01 µM; in [2], 12.5 µM; in assay [3] it was 5.8 µM; in [4], 11.1 µM; in assay [5], less than 0.01 µM; in assay [6], more than 31.6 µM. Further, the TGI in [7] is less than 0.01 µM; in assay [8], less than 0.01 µM; in [9], 18.4 µM; in assay [10], 0.644 µM.

As for `O=S(=O)(O)c1ccc(N=Nc2ccc(N=Nc3c(O)ccc4ccc(S(=O)(=O)O)cc34)cc2)cc1`, the TGI in assay [1], in assay [2], in assay [3], in assay [4], in assay [5] and in [6] was more than 100 µM throughout. Besides, the TGI in [7], in assay [8], in assay [9] and in assay [10] was more than 100 µM in each case.

As to `CC(C)(C)c1ccc(NS(=O)(=O)c2ccc(N)cc2)cc1`, the TGI in [2] was 14 µM; in assay [3], more than 100 µM; in assay [4], 39.2 µM; in assay [5], 32.5 µM; in assay [6] it was 45.2 µM; in assay [7] it was 35.3 µM. The TGI was determined as 29.6 µM in assay [8], 99.4 µM in assay [9] and 71.8 µM in assay [10].

For the compound `COc1ccccc1N1C(=O)CSC1c1cccc(Oc2ccccc2)c1` (configuration not stated), the TGI in assay [1] was determined as 70.5 µM; in assay [2], 41.1 µM; in assay [3], 47.4 µM; in [4], 30.7 µM; in assay [5] it was 29.9 µM; in assay [7], 46.7 µM. For the same compound, the TGI in assay [8] was determined as 34.9 µM; in assay [9], 74.5 µM; in [10], 43.4 µM.

`COc1ccc2c(c1)C(=O)c1c-2n(CCCN=[N+]=[N-])c(=O)c2cc([N+](=O)[O-])ccc12`: the TGI in assay [1] is 13.4 µM; in assay [2], 0.222 µM and 0.529 µM; in [3] it was more than 100 µM; in [5] it was 0.0849 µM; in assay [7], more than 100 µM; in [8], more than 100 µM. Moreover, the TGI in [9] is 0.00531 µM; in [10], more than 100 µM. In addition, the GI50 was 0.033 µM in assay [2]; 0.16 µM in assay [4]; 0.0106 µM in assay [5]; 2.82 µM in [7]; 0.0018 µM in assay [9].

As for `O=C(N/N=C\c1ccc(N(CCCl)CCCl)cc1)c1cccnc1`, the GI50 in [1] is 3.1 µM; in assay [2], 6.31 µM; in [3], 37.5 µM; in assay [4] it was more than 100 µM; in assay [5] it was 36.3 µM; in [6] it was more than 100 µM. The GI50 in assay [7] was more than 100 µM; in [8], more than 100 µM; in assay [9] it was 8.53 µM; in [10], more than 100 µM. Also, the TGI was more than 100 µM in assay [1]; 73.2 µM in [2]; more than 100 µM in assay [3]; more than 100 µM in assay [4]; more than 100 µM in assay [5]; more than 100 µM in assay [6]. For the same compound, the TGI in assay [7], in assay [8], in assay [9] and in assay [10] was more than 100 µM each time.

Consider `N/C(=C\c1ccc(/C=C(\NC(=O)c2ccccc2)c2nc3c([nH]2)C(=O)c2ccccc2C3=O)cc1)c1nc2c([nH]1)C(=O)c1ccccc1C2=O`, for which the TGI amounted to 30.9 µM in assay [2]; 36.5 µM in assay [3]; 33.6 µM in assay [4]; 31.5 µM in assay [5]; 40.3 µM in assay [6]; 32.4 µM in assay [7]. Further, the TGI turned out to be 29.9 µM in [8], 60.7 µM in assay [9] and 55.7 µM in assay [10].

For the compound `CN(CCO)CCC1COc2ccccc2O1` (configuration not stated), the TGI in [1], in assay [2], in assay [3], in assay [4], in assay [5] and in [6] was more than 10 µM throughout. Further, the TGI in assay [7], in assay [8], in assay [9] and in assay [10] was more than 10 µM each time.

`N#CC1(C#N)C(=O)c2ccncc2C1=O`: the TGI in assay [1], in assay [2], in [3], in [4], in assay [5] and in [6] was more than 100 µM each time. The TGI in assay [7], in assay [8], in assay [9] and in assay [10] was more than 100 µM in each case.

Take `N#C[S-].[Ce+3].c1ccc(-c2ccccn2)nc1.c1ccc(-c2ccccn2)nc1.c1ccc(-c2ccccn2)nc1`: the GI50 in [1] was 25.7 µM; in [2], 4.72 µM; in assay [3], 24.8 µM; in [4] it was 13.3 µM; in assay [5], 3.78 µM; in assay [6], 24.5 µM. The GI50 in assay [7] is 10.6 µM; in assay [8], 33 µM; in assay [9], 10.8 µM; in [10] it was 8.61 µM. In addition, the TGI in assay [1] is more than 100 µM; in assay [2], 49 µM; in assay [3], more than 100 µM; in [4], more than 100 µM; in assay [5], 20.4 µM; in [6], 69 µM. Further, the TGI was more than 100 µM in assay [7], more than 100 µM in assay [8], 91.3 µM in assay [9] and more than 100 µM in assay [10].

Turning to `CCOC(=O)NC(=O)c1cn(CCN(CCO)C(=O)NCCCCCCNC(=O)N(CCO)CCn2cc(C(=O)NC(=O)OCC)c(=O)[nH]c2=O)c(=O)[nH]c1=O`, the TGI in assay [2], in assay [3], in assay [4], in assay [5], in [6] and in assay [7] was more than 100 µM each time. In addition, the TGI in assay [8], in assay [9] and in assay [10] was more than 100 µM throughout.

For `Brc1ccc2nc(-c3cccs3)nc(N3CCN(c4ccccc4)CC3)c2c1`, the TGI in assay [1], in assay [2], in assay [3], in assay [4], in assay [5] and in [6] was more than 100 µM each time. Moreover, the TGI in assay [7], in assay [8], in [9] and in [10] was more than 100 µM throughout.

As to `COc1nc2ccc(Cl)c(C(O)c3ccccc3)c2nc1OC` (configuration not stated), the TGI in [1] was 27.3 µM; in [2], 44.8 µM; in assay [3], 78.6 µM; in assay [4], 88 µM; in assay [5], 30.3 µM; in assay [6] it was more than 100 µM. Also, the TGI was more than 100 µM in [7], 32.5 µM in [8], 45.3 µM in assay [9] and more than 100 µM in assay [10].

`COC(Cc1cc(C(O)(c2ccc(C(C)(C)C)cc2)c2cc(CC(OC)(c3cc(C(OC)(c4ccc(C(C)(C)C)cc4)c4ccc(C(C)(C)C)cc4)c(C)cc3C)c3cc(C(OC)(c4ccc(C(C)(C)C)cc4)c4ccc(C(C)(C)C)cc4)c(C)cc3C)c(C)cc2C)c(C)cc1C)(c1cc(C(OC)(c2ccc(C(C)(C)C)cc2)c2ccc(C(C)(C)C)cc2)c(C)cc1C)c1cc(C(OC)(c2ccc(C(C)(C)C)cc2)c2ccc(C(C)(C)C)cc2)c(C)cc1C`: the TGI in assay [1], in [2], in assay [3], in assay [4], in assay [5] and in [6] was more than 75 µM in each case. The TGI in [7], in assay [8], in assay [9] and in [10] was more than 75 µM each time.

As for `COc1c(O)cc2c(c1O)C(=O)C(Cc1ccc(O)cc1)CO2` (configuration not stated), the TGI in [1], in [2], in assay [3], in assay [4], in [5] and in [6] was more than 100 µM throughout. Besides, the TGI in assay [7], in assay [8], in assay [9] and in assay [10] was more than 100 µM throughout.

For the compound `CC1=C/C(=N\NS(=O)(=O)c2ccc([N+](=O)[O-])cc2)CC(C)(C)C1`, the TGI in assay [1], in [2], in assay [3], in assay [4], in [5] and in assay [6] was more than 100 µM in each case. For the same compound, the TGI in assay [8], in assay [9] and in assay [10] was more than 100 µM in each case.

The record behind these values is PubChem BioAssay (NCI).
